In PubChem BioAssay (NCI) one finds GI50 and TGI data, which are given here for eight compounds.

Several values for one entry are separate records, joined by “and”; a condition that tells them apart may be missing. Identical values can stand only once.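 Values below derive from 48-hour exposures of cells grown in 96-well plates, with endpoints linearly interpolated between the two concentrations bracketing the appropriate inhibition level. The concentration for 50% growth inhibition is given as GI50. TGI: total growth inhibition.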 Where only a bound is given, the exact number is not on record here.

Holding throughout (assay): inhibition of tumour cell growth, NCI panel, 48 h
Test [1] has as its system SF-295 CNS.
The subject of test [2] is RPMI-8226 leukemia.
Test [3] concerns BT-549 breast.
Test [4] deals with CCRF-CEM leukemia.
The subject of test [5] is DU-145 prostate.
The subject of test [6] is COLO 205 colon.
Test [7] concerns OVCAR-8 ovarian.
For test [8], the system named is EKVX NSCLC.
Test [9] relates to HCC-2998 colon.
In test [10] the test system is MOLT-4 leukemia.

With `O=C(N/N=C/c1cc([N+](=O)[O-])ccc1O)c1cccc2ccccc12`, the GI50 in [1] is 2.77 µM; in test [2], 3.35 µM; in [3] it was 1.63 µM; in [4], 0.905 µM; in test [5] it was 6.2 µM; in test [6], 3.41 µM. The GI50 in test [7] was 2.88 µM; in test [8], 3.8 µM; in [9], 5.3 µM; in [10] it was 2.41 µM. Besides, the TGI in test [1] was 20.9 µM; in test [2] it was 62.2 µM; in test [3] it was 23.7 µM; in [4] it was 38.6 µM; in test [5], over 100 µM; in test [6], 16.3 µM. The TGI in test [7] is over 100 µM; in test [8], 29.7 µM; in test [9] it was over 100 µM; in [10], 21.7 µM.

For `CSc1ccccc1C#Cc1ccccc1C#CCCCCO`, the GI50 is 1.54 µM in test [1]; 6.79 µM in test [2]; 13.3 µM in test [3]; 10.3 µM in [4]; 4.73 µM in test [5]; 15.8 µM in [6]. In addition, the GI50 in [7] is 18.7 µM; in [8] it was 16.9 µM; in test [9], 10 µM; in test [10] it was 7.32 µM. In addition, the TGI in [1] amounted to 6.3 µM; in [2], 46.6 µM; in [3], 26.6 µM; in test [4], 46.5 µM; in test [5], 18 µM; in test [6], 31.5 µM. Also, the TGI was 41.7 µM in test [7], 34.4 µM in test [8], 22.9 µM in test [9] and 29.3 µM in test [10].

As to `Nc1nc(N)c(N=O)c(OCC2CCCCC2)n1`, the TGI is 61.2 µM and 77.2 µM in [1]; 98.7 µM and 36.1 µM in test [2]; 61 µM and > 84.9 µM in test [3]; over 100 µM in test [4]; over 100 µM in test [5]; 37.4 µM and 33.8 µM in test [6]. The TGI in [7] is over 100 µM; in test [8], > 94.5 µM and 64.2 µM; in [9], over 100 µM; in test [10], > 100 µM and 51 µM. Further, the GI50 in test [2] is 9.17 µM; in test [3], 4.8 µM; in test [4], 8.83 µM; in [5] it was 5.93 µM; in [6], 15.1 µM; in test [8], 27 µM. Besides, the values for the GI50 in test [9] and in test [10] were 22.5 µM and 7.65 µM, respectively.

Regarding `O=C(OCCBr)c1ccc(Cl)c([N+](=O)[O-])c1`, the GI50 was 15.5 µM in [1]; 7.09 µM in test [2]; 18.1 µM in [3]; 15.6 µM in [4]; 2.31 µM in test [5]; 16.8 µM in [6]. Also, the GI50 is 17.3 µM in [7], 18.4 µM in test [8], 1.91 µM in test [9] and 23.7 µM in [10]. Also, the TGI in [1] amounted to 30.5 µM; in [2], 19 µM; in test [3], 33.1 µM; in test [4], 38.7 µM; in test [5], 5.27 µM; in test [6] it was 31.5 µM. The TGI in test [7] worked out at 35.2 µM; in [8] it was 37.1 µM; in [9] it was 3.67 µM; in test [10], 55.3 µM.

`CCCCN(CCCC)c1ccc(C(=NC(C)CCCN(CC)CC)c2ccc(N(C)C)cc2)cc1` (stereo not drawn): the GI50 in test [1] was 0.88 µM; in test [2], 0.95 µM; in [3], 0.838 µM; in test [4], 1.22 µM; in test [5] it was 1.57 µM; in test [6] it was 0.85 µM. Moreover, the GI50 was 0.99 µM in test [7], 1.05 µM in [8], 0.922 µM in [9] and 0.865 µM in test [10]. The TGI in test [1] came out at 1.73 µM; in test [2] it was 2.19 µM; in test [3] it was 1.73 µM; in test [4], 3.87 µM; in [5], 6.04 µM; in [6] it was 1.69 µM. Also, the TGI in test [7] is 2.09 µM; in test [8], 2.95 µM; in test [9], 1.77 µM; in test [10] it was 2.18 µM.

Take `O=C(CCCSc1nc(-c2ccccc2)cc(-c2ccc(Cl)cc2)n1)NO`: the GI50 in [1] was 2.03 µM; in test [2], 1.65 µM; in test [3], 3.46 µM; in [4] it was 0.882 µM; in test [5], 1.39 µM; in [6], 2.9 µM. Also, the GI50 in [7] was 0.596 µM; in test [8], 1.8 µM; in test [9], 3.03 µM; in test [10] it was 1.51 µM. Besides, the TGI worked out at 5.71 µM in test [1]; 8.42 µM in test [2]; 17.6 µM in test [3]; 13 µM in test [4]; 8.94 µM in test [5]; 12.1 µM in [6]. Further, the TGI is 16.2 µM in [7], 11.5 µM in test [8], 13.2 µM in test [9] and 10.6 µM in [10].

As for `COc1cc(C(=O)/C=C/c2cccnc2Nc2ccccc2)cc(OC)c1OC`, the GI50 in test [1] is 1.87 µM; in test [2] it was 0.349 µM; in test [3] it was 1.26 µM; in test [4] it was 0.321 µM; in test [5], 0.723 µM; in [6], 1.29 µM. For the same compound, the GI50 in test [7] was 1.27 µM; in test [8] it was 1.61 µM; in test [9], 1.18 µM; in [10] it was 2.68 µM. Further, the TGI in test [1] worked out at 3.78 µM; in test [2], 2.05 µM; in test [3] it was 2.54 µM; in test [4] it was 1.19 µM; in test [5], 1.94 µM; in test [6], 2.62 µM. Also, the TGI came out at 3.49 µM in test [7], 3.04 µM in [8], 2.46 µM in [9] and 19.5 µM in test [10].

As for `c1ccc(CSc2nnc3c4ccccc4c4ccccc4c3n2)cc1`, the TGI is 62.3 µM in [1]; over 100 µM in test [2]; over 100 µM in test [3]; 72.5 µM in test [4]; over 100 µM in test [5]; over 100 µM in test [6]. In addition, the TGI in test [7], in test [8], in test [9] and in test [10] was over 100 µM throughout.
